The text below walks through data of patent US20260274829A1, “NEW E3 UBIQUITIN LIGASE LIGAND, PROTEIN DEGRADATION AGENT AND USE THEREOF” (GLUETACS THERAPEUTICS (SHANGHAI) CO., LTD., priority 2023, published 2026).

SMILES strings stand for the structures. Where only a bound is given, the exact number is not on record here.

The target in the test is T1, human Cereblon WT GST-tagged protein (Homo sapiens, UniProt Q96SW2).
T1 construct: purchased CISBIO 64BDCRBNPEH
T1 sequence (Q96SW2 whole entry): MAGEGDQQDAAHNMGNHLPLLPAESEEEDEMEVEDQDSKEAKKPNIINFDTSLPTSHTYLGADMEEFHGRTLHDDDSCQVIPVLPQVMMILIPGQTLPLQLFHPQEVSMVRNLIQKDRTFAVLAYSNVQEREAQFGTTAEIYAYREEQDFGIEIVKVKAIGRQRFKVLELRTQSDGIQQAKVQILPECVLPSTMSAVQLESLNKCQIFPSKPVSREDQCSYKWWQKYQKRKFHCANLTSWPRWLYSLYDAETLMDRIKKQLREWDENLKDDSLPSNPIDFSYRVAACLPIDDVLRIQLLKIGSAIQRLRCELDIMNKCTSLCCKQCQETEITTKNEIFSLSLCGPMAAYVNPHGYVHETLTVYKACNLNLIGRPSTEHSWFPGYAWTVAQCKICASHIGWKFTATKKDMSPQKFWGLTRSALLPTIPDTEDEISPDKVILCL
Briefly: CRBN binding, HTRF CEREBLON BINDING kit. The conditions noted are these: CRBN binding, HTRF CEREBLON BINDING kit. In short, it runs like this:
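HTRF competition in which test compounds displace a Thalidomide-Re tracer from GST-tagged human Cereblon WT, detected with a GST Eu antibody. Incubation lasted 3 hours at room temperature, with emission read at 620 and 665 nm. Inhibition rate was derived from 665/620 ratios relative to blank and solvent control wells.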
Take `O=C1CCC(Nc2cccc(CN3CCN(c4ccc5c(c4)nc(NC(=O)c4cccc(C(F)(F)F)c4)n5[C@H]4CC[C@@H](CO)CC4)CC3)c2)C(=O)N1` (some centres unmarked) [GT-04985, N-(5-(4-(3-((2,6-dioxopiperidin-3-yl)amino)benzyl)piperazin-1-yl)-1-((1s,4s)-4-(hydroxymethyl)cyclohexyl)-1H-benzo[d]imidazol-2-yl)-3-(trifluoromethyl)benzamide]: the IC50 is 500 to 1000 nM.

For the compound `Nc1nnc(-c2ccccc2O)cc1N1CCN(Cc2ccc(C3CCC(=O)NC3=O)cc2)CC1` (centres unmarked) [GT-05015, 3-(4-((4-(3-amino-6-(2-hydroxyphenyl)pyridazin-4-yl)piperazin-1-yl)methyl)phenyl)piperidine-2,6-dione], the IC50 was below 500 nM.

In turn, `Nc1nnc(-c2ccccc2O)cc1N1CCN(Cc2ccc(N3CCC(=O)NC3=O)cn2)CC1` [GT-05016, 1-(6-((4-(3-amino-6-(2-hydroxyphenyl)pyridazin-4-yl)piperazin-1-yl)methyl)pyridin-3-yl)dihydropyrimidine-2,4(1H,3H)-dione] yielded an IC50 of 500 to 1000 nM.

On to `O=C1CCC(c2ccc(CN3CCC(N4CCN(c5ccc6c(c5)nc(NC(=O)c5cccc(C(F)(F)F)c5)n6[C@H]5CC[C@@H](CO)CC5)CC4)CC3)cc2)C(=O)N1` (some centres unmarked) [GT-05020, N-(5-(4-(1-(4-(2,6-dioxopiperidin-3-yl)benzyl)piperidin-4-yl)piperazin-1-yl)-1-((1s,4s)-4-(hydroxymethyl)cyclohexyl)-1H-benzo[d]imidazol-2-yl)-3-(trifluoromethyl)benzamide], for which the IC50 was in the range of 1000 to 1900 nM.

In turn, `O=C1CCN(c2ccc(CN3CCC(N4CCN(c5ccc6c(c5)nc(NC(=O)c5cccc(C(F)(F)F)c5)n6[C@H]5CC[C@@H](CO)CC5)CC4)CC3)cc2)C(=O)N1` [GT-05021, N-(5-(4-(1-(4-(2,4-dioxotetrahydropyrimidin-1(2H)-yl)benzyl)piperidin-4-yl)piperazin-1-yl)-1-((1s,4s)-4-(hydroxymethyl)cyclohexyl)-1H-benzo[d]imidazol-2-yl)-3-(trifluoromethyl)benzamide] yielded an IC50 of 1000 to 1900 nM.

As for `O=C1CCN(c2cccc(CN3CCC(N4CCN(c5ccc6c(c5)nc(NC(=O)c5cccc(C(F)(F)F)c5)n6[C@H]5CC[C@@H](CO)CC5)CC4)CC3)c2)C(=O)N1` [GT-05022, N-(5-(4-(1-(3-(2,4-dioxotetrahydropyrimidin-1(2H)-yl)benzyl)piperidin-4-yl)piperazin-1-yl)-1-((1s,4s)-4-(hydroxymethyl)cyclohexyl)-1H-benzo[d]imidazol-2-yl)-3-(trifluoromethyl)benzamide], the IC50 is 1000 to 1900 nM.

Compound `O=C1CCN(c2ccc(CN3CCC(N4CCN(c5ccc6c(c5)nc(NC(=O)c5cccc(C(F)(F)F)c5)n6[C@H]5CC[C@@H](CO)CC5)CC4)CC3)nc2)C(=O)N1` [GT-05024, N-(5-(4-(1-((5-(2,4-dioxotetrahydropyrimidin-1(2H)-yl)pyridin-2-yl)methyl)piperidin-4-yl)piperazin-1-yl)-1-((1s,4s)-4-(hydroxymethyl)cyclohexyl)-1H-benzo[d]imidazol-2-yl)-3-(trifluoromethyl)benzamide] showed an IC50 of 1000 to 1900 nM.

Consider `O=C1CCN(c2ccc(CN3CCC(n4cc(NC(=O)c5cnn6ccc(N7C[C@H]8C[C@@H]7CO8)nc56)c(C(F)F)n4)CC3)cc2)C(=O)N1` [GT-05029, 5-((1R,4R)-2-oxa-5-azabicyclo[2.2.1]heptan-5-yl)-N-(3-(difluoromethyl)-1-(1-(4-(2,4-dioxotetrahydropyrimidin-1(2H)-yl)benzyl)piperidin-4-yl)-1H-pyrazol-4-yl)pyrazolo[1,5-a]pyrimidine-3-carboxamide], for which the IC50 fell in the range of 500 to 1000 nM.

Compound `O=C1CCC(c2ccc(CN3CCC(n4cc(NC(=O)c5cnn6ccc(N7C[C@H]8C[C@@H]7CO8)nc56)c(C(F)F)n4)CC3)cc2)C(=O)N1` (stereo partly drawn) [GT-05050, 5-((1R,4R)-2-oxa-5-azabicyclo[2.2.1]heptan-5-yl)-N-(3-(difluoromethyl)-1-(1-(4-(2,6-dioxopiperidin-3-yl)benzyl)piperidin-4-yl)-1H-pyrazol-4-yl)pyrazolo[1,5-a]pyrimidine-3-carboxamide] showed an IC50 below 500 nM.

The compound `O=C1CCN(c2cccc(CN3CCC(n4cc(NC(=O)c5cnn6ccc(N7C[C@H]8C[C@@H]7CO8)nc56)c(C(F)F)n4)CC3)c2)C(=O)N1` [GT-05051, 5-((1R,4R)-2-oxa-5-azabicyclo[2.2.1]heptan-5-yl)-N-(3-(difluoromethyl)-1-(1-(3-(2,4-dioxotetrahydropyrimidin-1(2H)-yl)benzyl)piperidin-4-yl)-1H-pyrazol-4-yl)pyrazolo[1,5-a]pyrimidine-3-carboxamide] registered an IC50 of 500 to 1000 nM.

As to `O=C1CCC(Nc2cccc(CN3CCC(n4cc(NC(=O)c5cnn6ccc(N7C[C@H]8C[C@@H]7CO8)nc56)c(C(F)F)n4)CC3)c2)C(=O)N1` (stereo partly drawn) [GT-05052, 5-((1R,4R)-2-oxa-5-azabicyclo[2.2.1]heptan-5-yl)-N-(3-(difluoromethyl)-1-(1-(3-((2,6-dioxopiperidin-3-yl)amino)benzyl)piperidin-4-yl)-1H-pyrazol-4-yl)pyrazolo[1,5-a]pyrimidine-3-carboxamide], the IC50 lay in the range of 1000 to 1900 nM.

As to `O=C1CCN(c2ccc(CN3CCC(n4cc(NC(=O)c5cnn6ccc(N7C[C@H]8C[C@@H]7CO8)nc56)c(C(F)F)n4)CC3)nc2)C(=O)N1` [GT-05053, 5-((1R,4R)-2-oxa-5-azabicyclo[2.2.1]heptan-5-yl)-N-(3-(difluoromethyl)-1-(1-((5-(2,4-dioxotetrahydropyrimidin-1(2H)-yl)pyridin-2-yl)methyl)piperidin-4-yl)-1H-pyrazol-4-yl)pyrazolo[1,5-a]pyrimidine-3-carboxamide], the IC50 was in the range of 500 to 1000 nM.

The compound `Nc1nnc(-c2cc(F)ccc2O)cc1N1CCN(Cc2ccc(C3CCC(=O)NC3=O)cc2)CC1` (centres unmarked) [GT-05062, 3-(4-((4-(3-amino-6-(5-fluoro-2-hydroxyphenyl)pyridazin-4-yl)piperazin-1-yl)methyl)phenyl)piperidine-2,6-dione] showed an IC50 of 500 to 1000 nM.

Turning to `O=C1CCC(c2ccc(CN3C[C@@H]4C[C@H]3CN4c3ccc(-c4cc(F)c5c(c4)C(=O)N(C(C(=O)Nc4nccs4)c4ncn6c4CCC6)C5)cc3)cc2)C(=O)N1` (stereo partly drawn) [GT-05115, 2-(6,7-dihydro-5H-pyrrolo[1,2-c]imidazol-1-yl)-2-(6-(4-((1S,4S)-5-(4-(2,6-dioxopiperidin-3-yl)benzyl)-2,5-diazabicyclo[2.2.1]heptan-2-yl)phenyl)-4-fluoro-1-oxoisoindolin-2-yl)-N-(thiazol-2-yl)acetamide], the IC50 lay in the range of 500 to 1000 nM.

In the case of `O=C1CCN(c2ccc(CN3C[C@@H]4C[C@H]3CN4c3ccc(-c4cc(F)c5c(c4)C(=O)N(C(C(=O)Nc4nccs4)c4ncn6c4CCC6)C5)cc3)cc2)C(=O)N1` (stereo partly drawn) [GT-05116, 2-(6,7-dihydro-5H-pyrrolo[1,2-c]imidazol-1-yl)-2-(6-(4-((1S,4S)-5-(4-(2,4-dioxotetrahydropyrimidin-1(2H)-yl)benzyl)-2,5-diazabicyclo[2.2.1]heptan-2-yl)phenyl)-4-fluoro-1-oxoisoindolin-2-yl)-N-(thiazol-2-yl)acetamide], the IC50 is 500 to 1000 nM.

Take `O=C1CCN(c2cccc(CN3C[C@@H]4C[C@H]3CN4c3ccc(-c4cc(F)c5c(c4)C(=O)N(C(C(=O)Nc4nccs4)c4ncn6c4CCC6)C5)cc3)c2)C(=O)N1` (stereo partly drawn) [GT-05117, 2-(6,7-dihydro-5H-pyrrolo[1,2-c]imidazol-1-yl)-2-(6-(4-((1S,4S)-5-(3-(2,4-dioxotetrahydropyrimidin-1(2H)-yl)benzyl)-2,5-diazabicyclo[2.2.1]heptan-2-yl)phenyl)-4-fluoro-1-oxoisoindolin-2-yl)-N-(thiazol-2-yl)acetamide]: the half-maximal inhibitory concentration (IC50) fell in the range of 500 to 1000 nM.

On to `O=C1CCC(Nc2cccc(CN3C[C@@H]4C[C@H]3CN4c3ccc(-c4cc(F)c5c(c4)C(=O)N(C(C(=O)Nc4nccs4)c4ncn6c4CCC6)C5)cc3)c2)C(=O)N1` (stereo partly drawn) [GT-05118, 2-(6,7-dihydro-5H-pyrrolo[1,2-c]imidazol-1-yl)-2-(6-(4-((1S,4S)-5-(3-((2,6-dioxopiperidin-3-yl)amino)benzyl)-2,5-diazabicyclo[2.2.1]heptan-2-yl)phenyl)-4-fluoro-1-oxoisoindolin-2-yl)-N-(thiazol-2-yl)acetamide], for which the concentration for half-maximal inhibition (IC50) was in the range of 500 to 1000 nM.

Take `O=C1CCN(c2ccc(CN3C[C@@H]4C[C@H]3CN4c3ccc(-c4cc(F)c5c(c4)C(=O)N(C(C(=O)Nc4nccs4)c4ncn6c4CCC6)C5)cc3)nc2)C(=O)N1` (stereo partly drawn) [GT-05119, 2-(6,7-dihydro-5H-pyrrolo[1,2-c]imidazol-1-yl)-2-(6-(4-((1S,4S)-5-((5-(2,4-dioxotetrahydropyrimidin-1(2H)-yl)pyridin-2-yl)methyl)-2,5-diazabicyclo[2.2.1]heptan-2-yl)phenyl)-4-fluoro-1-oxoisoindolin-2-yl)-N-(thiazol-2-yl)acetamide]: the IC50 is 500 to 1000 nM.

In turn, `CN(Cc1ccc(C2CCC(=O)NC2=O)cc1)C1CCN(c2ccc(-c3cc(F)c4c(c3)C(=O)N(C(C(=O)Nc3nccs3)c3ncn5c3CCC5)C4)cc2)CC1` (centres unmarked) [GT-05218, 2-(6,7-dihydro-5H-pyrrolo[1,2-c]imidazol-1-yl)-2-(6-(4-(4-((4-(2,6-dioxopiperidin-3-yl)benzyl)(methyl)amino)piperidin-1-yl)phenyl)-4-fluoro-1-oxoisoindolin-2-yl)-N-(thiazol-2-yl)acetamide] registered an IC50 of 500 to 1000 nM.

Turning to `CN(Cc1ccc(N2CCC(=O)NC2=O)cc1)C1CCN(c2ccc(-c3cc(F)c4c(c3)C(=O)N(C(C(=O)Nc3nccs3)c3ncn5c3CCC5)C4)cc2)CC1` (centres unmarked) [GT-05219, 2-(6,7-dihydro-5H-pyrrolo[1,2-c]imidazol-1-yl)-2-(6-(4-(4-((4-(2,4-dioxotetrahydropyrimidin-1(2H)-yl)benzyl)(methyl)amino)piperidin-1-yl)phenyl)-4-fluoro-1-oxoisoindolin-2-yl)-N-(thiazol-2-yl)acetamide], the IC50 was below 500 nM.
